{
  "source": "ChEMBL document CHEMBL1201862",
  "about": "“PubChem BioAssay data set” (2004)",
  "assay_in_all_cases": "NCI tumour cell line growth inhibition, 48 h",
  "key": {"SNB-19": {"system": "SNB-19"}, "CAKI-1": {"system": "CAKI-1"}, "SN12C": {"system": "SN12C"}, "UACC-62": {"system": "UACC-62"}, "HOP-62": {"system": "HOP-62"}, "SW-620": {"system": "SW-620"}, "OVCAR-8": {"system": "OVCAR-8"}, "BT-549": {"system": "BT-549"}, "OVCAR-5": {"system": "OVCAR-5"}, "PC-3": {"system": "PC-3"}, "SK-MEL-28": {"system": "SK-MEL-28"}, "SK-MEL-5": {"system": "SK-MEL-5"}, "HCC 2998": {"system": "HCC 2998"}, "SF-268": {"system": "SF-268"}, "MDA-N": {"system": "MDA-N"}, "IGROV-1": {"system": "IGROV-1"}, "Hs-578T": {"system": "Hs-578T"}, "MCF7": {"system": "MCF7"}, "SF-295": {"system": "SF-295"}, "HL-60": {"system": "HL-60"}, "HT-29": {"system": "HT-29"}, "COLO 205": {"system": "COLO 205"}, "NCI-H23": {"system": "NCI-H23"}, "NCI-H460": {"system": "NCI-H460"}, "786-0": {"system": "786-0"}, "RPMI-8226": {"system": "RPMI-8226"}, "HCT-15": {"system": "HCT-15"}, "NCI/ADR-RES": {"system": "NCI/ADR-RES"}, "MDA-MB-435": {"system": "MDA-MB-435"}, "LOX IMVI": {"system": "LOX IMVI"}, "HCT-116": {"system": "HCT-116"}, "K562": {"system": "K562"}, "EKVX": {"system": "EKVX"}, "SK-OV-3": {"system": "SK-OV-3"}, "SF-539": {"system": "SF-539"}, "ACHN": {"system": "ACHN"}, "OVCAR-4": {"system": "OVCAR-4"}, "HOP-92": {"system": "HOP-92"}, "SR": {"system": "SR"}, "UACC-257": {"system": "UACC-257"}, "TK-10": {"system": "TK-10"}, "CCRF-CEM": {"system": "CCRF-CEM"}, "M14": {"system": "M14"}, "UO-31": {"system": "UO-31"}, "MOLT-4": {"system": "MOLT-4"}, "SK-MEL-2": {"system": "SK-MEL-2"}, "Malme-3M": {"system": "Malme-3M"}, "OVCAR-3": {"system": "OVCAR-3"}, "A549": {"system": "A549"}, "A498": {"system": "A498"}},
  "note": "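Cells were grown in 96-well plates and exposed to each compound for 48 hours at five concentrations; endpoints were interpolated linearly between bracketing concentrations, or set to the highest concentration if not reached. Here, GI50 denotes the concentration required for 50% inhibition of growth.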 Active and inactive are the calls of the source. Rule as the data show it: active = GI50 up to about 1.1 µM and inactive = higher.",
  "data": [
    {"smiles": "CC(C)(C)OC(=O)C1/C(=C/CO)CN1C(=O)OC(C)(C)C", "note": "(stereo not given)", "values": [
      {"measurement": "GI50", "setting": "SNB-19", "result": "> 100 µM (inactive)"},
      {"measurement": "GI50", "setting": "CAKI-1", "result": "> 100 µM (inactive)"},
      {"measurement": "GI50", "setting": "SN12C", "result": "> 100 µM (inactive)"},
      {"measurement": "GI50", "setting": "UACC-62", "result": "> 100 µM (inactive)"},
      {"measurement": "GI50", "setting": "HOP-62", "result": "> 100 µM (inactive)"},
      {"measurement": "GI50", "setting": "SW-620", "result": "> 100 µM (inactive)"},
      {"measurement": "GI50", "setting": "OVCAR-8", "result": "> 100 µM (inactive)"},
      {"measurement": "GI50", "setting": "BT-549", "result": "> 100 µM (inactive)"},
      {"measurement": "GI50", "setting": "OVCAR-5", "result": "> 100 µM (inactive)"},
      {"measurement": "GI50", "setting": "PC-3", "result": "> 100 µM (inactive)"},
      {"measurement": "GI50", "setting": "SK-MEL-28", "result": "> 100 µM (inactive)"},
      {"measurement": "GI50", "setting": "SK-MEL-5", "result": "> 100 µM (inactive)"},
      {"measurement": "GI50", "setting": "HCC 2998", "result": "> 100 µM (inactive)"},
      {"measurement": "GI50", "setting": "SF-268", "result": "> 100 µM (inactive)"},
      {"measurement": "GI50", "setting": "MDA-N", "result": "> 100 µM (inactive)"},
      {"measurement": "GI50", "setting": "IGROV-1", "result": "> 100 µM (inactive)"},
      {"measurement": "GI50", "setting": "Hs-578T", "result": "> 100 µM (inactive)"},
      {"measurement": "GI50", "setting": "MCF7", "result": "> 100 µM (inactive)"},
      {"measurement": "GI50", "setting": "SF-295", "result": "> 100 µM (inactive)"},
      {"measurement": "GI50", "setting": "HL-60", "result": "> 100 µM (inactive)"},
      {"measurement": "GI50", "setting": "HT-29", "result": "> 100 µM (inactive)"},
      {"measurement": "GI50", "setting": "COLO 205", "result": "> 100 µM (inactive)"},
      {"measurement": "GI50", "setting": "NCI-H23", "result": "> 100 µM (inactive)"},
      {"measurement": "GI50", "setting": "NCI-H460", "result": "> 100 µM (inactive)"},
      {"measurement": "GI50", "setting": "786-0", "result": "> 100 µM (inactive)"},
      {"measurement": "GI50", "setting": "RPMI-8226", "result": "> 100 µM (inactive)"},
      {"measurement": "GI50", "setting": "HCT-15", "result": "> 100", "unit": "µM"},
      {"measurement": "GI50", "setting": "NCI/ADR-RES", "result": "> 100 µM (inactive)"},
      {"measurement": "GI50", "setting": "MDA-MB-435", "result": "> 100 µM (inactive)"},
      {"measurement": "GI50", "setting": "LOX IMVI", "result": "> 100 µM (inactive)"},
      {"measurement": "GI50", "setting": "HCT-116", "result": "> 100 µM (inactive)"},
      {"measurement": "GI50", "setting": "K562", "result": "> 100 µM (inactive)"},
      {"measurement": "GI50", "setting": "EKVX", "result": "> 100 µM (inactive)"},
      {"measurement": "GI50", "setting": "SK-OV-3", "result": "> 100 µM (inactive)"},
      {"measurement": "GI50", "setting": "SF-539", "result": "> 100 µM (inactive)"},
      {"measurement": "GI50", "setting": "ACHN", "result": "> 100 µM (inactive)"},
      {"measurement": "GI50", "setting": "OVCAR-4", "result": "63.7 µM (inactive)"},
      {"measurement": "GI50", "setting": "HOP-92", "result": "> 100 µM (inactive)"},
      {"measurement": "GI50", "setting": "SR", "result": "90.8 µM (inactive)"},
      {"measurement": "GI50", "setting": "UACC-257", "result": "> 100 µM (inactive)"},
      {"measurement": "GI50", "setting": "TK-10", "result": "> 100 µM (inactive)"},
      {"measurement": "GI50", "setting": "CCRF-CEM", "result": "76.2 µM (inactive)"},
      {"measurement": "GI50", "setting": "M14", "result": "> 100 µM (inactive)"},
      {"measurement": "GI50", "setting": "UO-31", "result": "> 100 µM (inactive)"},
      {"measurement": "GI50", "setting": "MOLT-4", "result": "57.3 µM (inactive)"},
      {"measurement": "GI50", "setting": "SK-MEL-2", "result": "> 100 µM (inactive)"},
      {"measurement": "GI50", "setting": "Malme-3M", "result": "> 100 µM (inactive)"},
      {"measurement": "GI50", "setting": "OVCAR-3", "result": "> 100 µM (inactive)"},
      {"measurement": "GI50", "setting": "A549", "result": "> 100 µM (inactive)"},
      {"measurement": "GI50", "setting": "A498", "result": "> 100 µM (inactive)"}
    ]}
  ]
}
